From BigSolDB 2.1

CCCSc1ccc2nc(NC(=O)OC)[nH]c2c1
solubility (mole fraction)
Conditions | 278.15 K | 283.15 K | 288.15 K | 293.15 K | 298.15 K | 303.15 K | 308.15 K | 313.15 K | 318.15 K | 323.15 K
in acetone | 0.00151 | 0.0018 | 0.00213 | 0.00254 | 0.00297 | 0.00344 | 0.00402 | 0.00463 | 0.00535 | 0.00613
in isopropanol | 0.000106 | 0.00013 | 0.000158 | 0.000192 | 0.000229 | 0.000276 | 0.00033 | 0.000388 | 0.000453 | 0.000532
in methanol | 8.85e-05 | 0.000109 | 0.000132 | 0.000159 | 0.000193 | 0.00023 | 0.000273 | 0.000327 | 0.000381 | 0.000448
in water | 1.59e-07 | 2.16e-07 | 2.9e-07 | 3.99e-07 | 5.31e-07 | 6.93e-07 | 9.18e-07 | 1.19e-06 | 1.56e-06 | 1.98e-06
